Values of other authors in patent US6399785B1, “Multiply-substituted fullerenes” (C-Sixty, Inc., priority 1995, dated 2002).
Where two headings read alike, the source gives them in different places.

What was measured:
HIV [1] = settings: H9 cells chronically infected with HIV, in vitro
HIV [2] = settings: human PBMC acutely infected with HIV, in vitro

In the case of “bis (monosuccinimide) derivative of p,p′-bis (2-aminoethyl) diphenyl C60”, the antiviral activity (HIV [1]) is given as “showed antiviral activity” and the antiviral activity (HIV [2]) is given as “showed antiviral activity”.
